{
  "source": "patent US8101408B2",
  "about": "“Insecticidal extract from legume plants and method of preparing the same” (Her Majesty the Queen in right of Canada, as represented by …, priority 2005, dated 2012)",
  "key": {"[1]": {"tested_on": "Sitophilus oryzae", "assay": "Flour disk antifeedant bioassay with rice weevils (food consumption as % of control; EC50/EC90 for feeding reduction)", "type": "in vivo", "settings": "for food consumption, initial treatment: Table 20, saponin alone; for food consumption, peptide to saponin treatment ratio 1:9 / food consumption, peptide to saponin treatment ratio 1:1 / food consumption, peptide to saponin treatment ratio 9:1: peptide source AIEX YM3; for antifeedant activity (in words): rice weevil flour disk bioassay; for Feeding as a percent of control (%): saponin:peptide ratio 1:0 (saponin or soap alone), concentration 0.8%; for synergy with pea peptides (in words): single dose tests, pea peptide to saponin treatment ratios of 9:1, 1:1 and 1:9", "protocol": "The bioactivity of separated fractions was determined primarily by a flour disk antifeedant bioassay with the rice weevil (Sitophilus oryzae), an insect pest of stored products.\nA glass column (1.2 cm internal diameter×20.5 cm length) equipped with a solvent reservoir and stopcock was filled with silica gel (Mallinckrodt SilicAR cc-7) using a slurry of the silica gel in chloroform (Merck OmniSolv containing 1% ethanol). The top of the bed was protected with sea sand. C8 powder (130 mg) was applied to the column, after mixing with silica gel, as a 1.25 cm band. Using a slight positive air pressure to maintain reasonable flow rates, the column was eluted with chloroform (75 ml) then with 75 ml volumes of various mixtures of chloroform and methanol followed by pure methanol (Table 1). The column was eluted with more methanol (75 ml) and finally with two additional volumes of methanol (250 ml each). […] A final evaporation was performed with a Savant apparatus (43° C.). The tubes were re-weighed, capped and transferred to the bioassay laboratory. Each sample was dissolved in 70% ethanol (0.5 ml) and 0.2 ml of that solution was added to the wheat flour (200 mg) for preparation of the disks. […] Control disks were prepared with 0.2 ml of 70% ethanol.\nA test insecticidal compound is incorporated into flour disks. […] A typical dose in many of the above examples is 1.6 milligram/200 milligram flour. Wheat flour is typically used.\n(§1) Reduction in feeding activity elicited by the experimental samples was compared to food consumption of untreated controls, obtained by weighing the disks before and after exposure to insects and expressed as percent feeding relative to the control. Bioassay can also include insecticidal measurements (lethality with rice weevil).\n(§2) Flour disks (ca. 0.1 g/disk) were weighed before and after exposure to the insects. […] Antifeedant activity was determined by expressing consumption of treated disks as a percentage of control disks (70% ethanol). Positive controls using the same C8 extract were run with each bioassay.\nThe estimate and confidence limits are the values of X where the line Y=Yo crosses the regression line and its upper and lower confidence curves, respectively. The formulae can be expressed in terms of outputs from the regression analysis. Let a and b be the estimates of the intercept and slope, MSE the mean square error, n the number of observations, t the (2-sided) critical value of t with n−2 degrees of freedom, V(b) the variance (standard error squared) of b and D=b^2−t^2V(b)). Then the estimate of X is Xo=(Yo−a)/b and the confidence limits for X are X0+t^2V(b)(Y0− Y)/bD±H where H^2=t^2└D·MSE/n+V(b)(Y0− Y)^2┘/D^2. The interval is not symmetric about Xo. […]"}, "[2]": {"tested_on": "Sitophilus oryzae", "type": "in vivo", "settings": "for Mean survival time (days ± SE): 0.8%, Kaplan-Meier", "protocol": "as §1, §2\nProbit analysis (Polo-PC, LeOra Software, Berkeley, Calif., U.S.A.) was used to estimate the concentrations required to kill 50 and 90% of the population after seven days. For the experiments that used a single dose, the mean survival time was estimated using Kaplan-Meier survival analysis (SigmaStat 3.0, SPSS Inc, Chicago, Ill., U.S.A.)."}, "[3]": {"settings": "total dose 1.6 mg/200 mg of flour"}, "[4]": {"settings": "total dose 1.6 mg/200 mg of flour (D-I: 0.8 mg/100 mg)"}, "[5]": {"settings": "C8 material as peptide source, total dose 1.6 mg/200 mg of flour"}},
  "note": "Values joined by “and” are separate entries in the source; they are usually repeats but may differ in a detail not shown here. Equal values may be shown once. “Also recorded” adds a separate entry of the source.",
  "data": [
    {"molecule": "C[C@@H]1O[C@@H](O[C@H]2[C@H](O[C@H]3CC[C@@]4(C)[C@@H](CC[C@]5(C)[C@@H]4CC=C4[C@@H]6CC(C)(C)CC[C@]6(C(=O)O[C@@H]6O[C@H](CO[C@@H]7O[C@H](CO)[C@@H](O[C@@H]8O[C@@H](C)[C@H](O)[C@@H](O)[C@H]8O)[C@H](O)[C@H]7O)[C@@H](O)[C@H](O)[C@H]6O)CC[C@]45C)[C@]3(C)CO)OC[C@H](O)[C@@H]2O)[C@H](O)[C@H](O)[C@H]1O", "note": "[Hederacoside C, hederacoside C]", "values": [
      {"measurement": "food consumption, initial treatment", "setting": "[1]; 1.6 mg/200 mg of flour", "value": "117 % of control"},
      {"measurement": "food consumption, peptide to saponin treatment ratio 1:9", "setting": "[1]; [3]", "value": "58 % of control"},
      {"measurement": "food consumption, peptide to saponin treatment ratio 1:1", "setting": "[1]; [4]", "value": "47 % of control"},
      {"measurement": "food consumption, peptide to saponin treatment ratio 9:1", "setting": "[1]; [4]", "value": "44 % of control"},
      {"measurement": "antifeedant activity (in words)", "setting": "[1]", "value": "inactive"},
      {"measurement": "antifeedant activity (in words)", "setting": "[1]; listed as hederacoside C", "value": "no significant reduction in feeding"},
      {"measurement": "Feeding as a percent of control (%)", "setting": "[1]", "value": 117, "unit": "%"},
      {"measurement": "synergy with pea peptides (in words)", "setting": "[1]", "value": "clearly synergistic"},
      {"measurement": "Mean survival time (days ± SE)", "setting": "[2]; saponin:peptide ratio 1:0", "value": 13.9, "unit": "a days"}
    ]},
    {"molecule": "CCCCCCCCCCCCCCCC(=O)OC[C@@H](O)COP(=O)([O-])OCC[N+](C)(C)C", "note": "[L-16:0]", "values": [
      {"measurement": "food consumption in the rice weevil bioassay", "setting": "[1]; 1.6 mg/200 mg flour, relative to control", "value": 102, "unit": "%"},
      {"measurement": "food consumption", "setting": "[1]; lysolecithin-saponin (soyasaponin I) mixtures, similar experiments, total dose 0.016-1.6 mg/200 mg of flour", "value": "84-102%"},
      {"measurement": "food consumption, expressed as % of untreated control", "setting": "[1]; mixtures of 90% lysolecithin and 10% peptides (AIEX YM3), total dose 0.016-1.6 mg/200 mg of flour", "value": "71-115%"}
    ]},
    {"molecule": "C[C@@H]1O[C@@H](O[C@H]2[C@H](O[C@H]3CC[C@@]4(C)[C@@H](CC[C@]5(C)[C@@H]4CC=C4[C@@H]6CC(C)(C)CC[C@]6(C(=O)O)CC[C@]45C)[C@]3(C)CO)OC[C@H](O)[C@@H]2O)[C@H](O)[C@H](O)[C@H]1O", "note": "[α-Hederin, α-hederin]", "values": [
      {"measurement": "food consumption, initial treatment", "setting": "[1]; 1.6 mg/200 mg of flour", "value": "36 % of control"},
      {"measurement": "food consumption, peptide to saponin treatment ratio 1:9", "setting": "[1]; [3]", "value": "26 % of control"},
      {"measurement": "food consumption, peptide to saponin treatment ratio 1:1", "setting": "[1]; [4]", "value": "26 % of control"},
      {"measurement": "food consumption, peptide to saponin treatment ratio 9:1", "setting": "[1]; [4]", "value": "24 % of control"},
      {"measurement": "Feeding as a percent of control (%)", "setting": "[1]", "value": 36, "unit": "%"}
    ]},
    {"molecule": "CCCCCCCCCCCC(=O)OCCOCCOCCOCCOCCOCCOCCOCCOCCOCCOCCOCCOCCOCCOCCOCCOCCOCCOCCOCCOCC(OCCOCCOCCOCCOCCOCCOCCOCCOCCOCCOCCOCCOCCOCCOCCOCCOCCOCCOCCOCCO)C1OCC(OCCOCCOCCOCCOCCOCCOCCOCCOCCOCCOCCOCCOCCOCCOCCOCCOCCOCCOCCOCCO)C1OCCOCCOCCOCCOCCOCCOCCOCCOCCOCCOCCOCCOCCOCCOCCOCCOCCOCCOCCOCCO", "note": "(stereo not drawn) [Tween 20, polyoxyethylene(20)sorbitan monolaurate]", "values": [
      {"measurement": "Feeding as a percent of control (%)", "setting": "[1]", "value": 106, "unit": "%"},
      {"measurement": "Mean survival time (days ± SE)", "setting": "[2]; saponin:peptide ratio 1:0", "value": 13.7, "unit": "a days"},
      {"measurement": "mortality / toxicity to the rice weevil (in words)", "setting": "[2]; used alone", "value": "Neither Tween or dish soap were toxic"}
    ]},
    {"molecule": "Cc1occc(=O)c1O", "note": "[maltol, 3-hydroxy-2-methyl-4-pyrone]", "values": [
      {"measurement": "f.c. (food consumption)", "setting": "[1]; Table 4, 1.6 mg/200 mg of flour", "value": "110 % of control"},
      {"measurement": "antifeedant activity (in words)", "setting": "[1]", "value": "inactive"}
    ]},
    {"molecule": "CC1(C)[C@@H](O[C@H]2O[C@H](C(=O)O)[C@@H](O)[C@H](O)[C@H]2O[C@@H]2O[C@H](C(=O)O)[C@@H](O)[C@H](O)[C@H]2O)CC[C@]2(C)[C@H]3C(=O)C=C4[C@@H]5C[C@@](C)(C(=O)O)CC[C@]5(C)CC[C@@]4(C)[C@]3(C)CC[C@@H]12", "note": "[Glycyrrhizic acid, glycyrrhizic acid]", "values": [
      {"measurement": "food consumption, initial treatment", "setting": "[1]; 1.6 mg/200 mg of flour", "value": "96 % of control"},
      {"measurement": "food consumption, peptide to saponin treatment ratio 1:9", "setting": "[1]; [3]", "value": "39 % of control"},
      {"measurement": "food consumption, peptide to saponin treatment ratio 1:1", "setting": "[1]; [4]", "value": "45 % of control"},
      {"measurement": "food consumption, peptide to saponin treatment ratio 9:1", "setting": "[1]; [4]", "value": "33 % of control"},
      {"measurement": "antifeedant activity (in words)", "setting": "[1]", "value": "inactive; also recorded: no significant reduction in feeding"},
      {"measurement": "Feeding as a percent of control (%)", "setting": "[1]", "value": 96, "unit": "%"},
      {"measurement": "synergy with pea peptides (in words)", "setting": "[1]", "value": "clearly synergistic"}
    ]},
    {"molecule": "β-escin", "values": [
      {"measurement": "food consumption, peptide to saponin treatment ratio 1:1 (values in brackets)", "setting": "[1]; [5]", "value": "(15) % of control"},
      {"measurement": "food consumption, peptide to saponin treatment ratio 1:9 (values in brackets)", "setting": "[1]; [5]", "value": "(16) % of control"},
      {"measurement": "food consumption, peptide to saponin treatment ratio 9:1 (values in brackets)", "setting": "[1]; C8 material as peptide source, total dose 1.6 mg/200 mg of flour (D-I: 0.8 mg/100 mg)", "value": "(14) % of control"},
      {"measurement": "food consumption, peptide to saponin treatment ratio 1:9", "setting": "[1]; [3]", "value": "18 % of control"},
      {"measurement": "food consumption, peptide to saponin treatment ratio 1:1", "setting": "[1]; [4]", "value": "17 % of control"},
      {"measurement": "food consumption, peptide to saponin treatment ratio 9:1", "setting": "[1]; [4]", "value": "17 % of control"},
      {"measurement": "Feeding as a percent of control (%)", "setting": "[1]", "value": "18% and 30%"},
      {"measurement": "EC90 (%) to reduce feeding by 90%", "setting": "[1]; saponin:peptide ratio 1:0, three days on treated wafers", "value": 1.5, "unit": "%"},
      {"measurement": "Mean survival time (days ± SE)", "setting": "[2]; saponin:peptide ratio 1:0", "value": "6.3 ± 0.2", "unit": "a days"},
      {"measurement": "LD90 (%)", "setting": "[2]; saponin:peptide ratio 1:0, held three days on treated wafers, at 7 days", "value": 1.74, "unit": "%"}
    ]}
  ]
}
